Source: paper PMC10388204, “Different conformational dynamics of SNARE protein Ykt6 among yeast and mammals” (The Journal of Biological Chemistry, 2023)
Residue numbers refer to the chain shown, from its start.

Tests used:
Test in all cases: isothermal titration calorimetry
Assay type in all cases: binding
[1] = target: T1, rYkt6ΔC (Rattus norvegicus, UniProt Q5EGY4, S174D); conditions: 50 mM Tris pH 8.0, 100 mM NaCl, 1 mM EDTA, 1 mM β-mercaptoethanol, 25 °C
T1 construct: gene Ykt6; residues 1-193, C-terminal CCAIM motif removed; His6 tag; pET-M3C; E. coli BL21(DE3); not lipidated
T1 sequence (Q5EGY4 1-193 S174D): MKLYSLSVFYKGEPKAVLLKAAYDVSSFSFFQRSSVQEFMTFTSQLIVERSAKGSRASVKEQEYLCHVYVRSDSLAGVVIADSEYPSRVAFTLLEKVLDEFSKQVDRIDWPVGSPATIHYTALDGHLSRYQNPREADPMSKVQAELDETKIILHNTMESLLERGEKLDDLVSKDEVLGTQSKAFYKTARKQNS

[2] = target: T2, yYkt6ΔC (Saccharomyces cerevisiae, UniProt P36015, T46L/Q57A/L172A); conditions: 50 mM Tris pH 8.0, 100 mM NaCl, 1 mM EDTA, 1 mM β-mercaptoethanol, 25 °C
T2 construct: gene YKT6; residues 1-195, C-terminal CCIIM motif removed; His6 tag; pET-M3C; E. coli BL21(DE3); not lipidated
T2 sequence (P36015 1-195 T46L/Q57A/L172A): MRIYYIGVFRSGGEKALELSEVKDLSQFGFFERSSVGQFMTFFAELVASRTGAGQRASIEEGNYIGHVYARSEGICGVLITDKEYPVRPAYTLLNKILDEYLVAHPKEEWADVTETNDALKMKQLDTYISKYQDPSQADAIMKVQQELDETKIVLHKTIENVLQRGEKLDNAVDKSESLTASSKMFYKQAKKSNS

[3] = target: T3, yYkt6ΔC (Saccharomyces cerevisiae, UniProt P36015, T46L/Q57A/L169A); conditions: 50 mM Tris pH 8.0, 100 mM NaCl, 1 mM EDTA, 1 mM β-mercaptoethanol, 25 °C
T3 construct: gene YKT6; residues 1-195, C-terminal CCIIM motif removed; His6 tag; pET-M3C; E. coli BL21(DE3); not lipidated
T3 sequence (P36015 1-195 T46L/Q57A/L169A): T2 sequence (P36015 1-195 T46L/Q57A/L172A) with L169A, A172L

[4] = target: T4, yYkt6ΔC (Saccharomyces cerevisiae, UniProt P36015, S176D); conditions: 50 mM Tris pH 8.0, 100 mM NaCl, 1 mM EDTA, 1 mM β-mercaptoethanol, 25 °C
T4 construct: gene YKT6; residues 1-195, C-terminal CCIIM motif removed; His6 tag; pET-M3C; E. coli BL21(DE3); not lipidated
T4 sequence (P36015 1-195 S176D): T2 sequence (P36015 1-195 T46L/Q57A/L172A) with L46T, A57Q, A172L, S176D

[5] = target: T5, yYkt6ΔC (Saccharomyces cerevisiae, UniProt P36015); conditions: 50 mM Tris pH 8.0, 100 mM NaCl, 1 mM EDTA, 1 mM β-mercaptoethanol, 25 °C
T5 construct: gene YKT6; residues 1-195, C-terminal CCIIM motif removed; His6 tag; pET-M3C; E. coli BL21(DE3); not lipidated
T5 sequence (P36015 1-195): T2 sequence (P36015 1-195 T46L/Q57A/L172A) with L46T, A57Q, A172L

[6] = target: T6, rYkt6ΔC (Rattus norvegicus, UniProt Q5EGY4)
T6 construct: gene Ykt6; residues 1-193, C-terminal CCAIM motif removed; His6 tag; pET-M3C; E. coli BL21(DE3); not lipidated
T6 sequence (Q5EGY4 1-193): T1 sequence (Q5EGY4 1-193 S174D) with D174S

[7] = target: T7, yYkt6ΔC (Saccharomyces cerevisiae, UniProt P36015, Q57A/T46L)
T7 construct: gene YKT6; residues 1-195, C-terminal CCIIM motif removed; His6 tag; pET-M3C; E. coli BL21(DE3); not lipidated
T7 sequence (P36015 1-195 T46L/Q57A): T2 sequence (P36015 1-195 T46L/Q57A/L172A) with A172L

Kd [6]: 38.5 µM
Kd [7]: 33.3 µM
Compound: CCCCCCCCCCCCOP(=O)([O-])OCC[N+](C)(C)C [DPC, dodecylphosphocholine]
no binding [1]: ITC experiments showed that DPC could not bind to rYkt6ΔC-S174D mutant
no binding [2]: ITC measurements showed that these mutations disrupt the binding with DPC
no binding [3]: ITC measurements showed that these mutations disrupt the binding with DPC
no binding [4]: the phospho-mutant yYkt6ΔC-S176D could not bind DPC either
no binding [5]: It turns out that DPC could not bind to yYkt6ΔC
